How the values were obtained:
normotensive dogs = assay: Intraocular pressure (IOP) reduction in normotensive dogs; type: in vivo
Experimental: Compounds such as those described in the above are tested in vivo to measure its ability to reduce intraocular pressure. Compound A is tested in normotensive dogs.
Compound B is tested in normotensive dogs.

[1] = system: laser-induced hypertensive monkeys; assay: Intraocular pressure (IOP) reduction in laser-induced hypertensive monkeys; type: in vivo
[2] = system: lashes and adjacent hairs of patients; assay: Observation of lashes in glaucoma patients treated in only one eye; type: in vivo, human; settings: glaucoma patient, unilateral treatment
Text: In the course of treating patients having glaucoma, treatment may only be appropriate in one eye. […] The lash appearance on the lids of the treated eyes would have appeared quite attractive if it represented a bilateral phenomenon. As a result of its asymmetric nature, the long lashes on one side could be construed as disturbing from a cosmetic standpoint. A systemic examination was preformed as a result of the asymmetric phenomenon. It soon became apparent that this altered appearance was not an isolated finding. […] Definite differences could be identified to varying degrees in the lashes and adjacent hairs of all patients who were taking the drug on a unilateral basis for longer than 6 months.
The changes in the lashes were apparent on gross inspection in several patients once attention was focused on the issue. In those with light colored hair and lashes, the differences were only seen easily with the aid of the high magnification and lighting capabilities of the slit lamp biomicroscope. In the course of glaucoma follow-up examination, attention is generally immediately focused on the eye itself. As a result of the high power magnification needed only one eye is seen at a time and the eye is seen at a high enough power that the lashes are not in focus. […]

SMILES | intraocular pressure (IOP) change from baseline (normotensive dogs) | intraocular pressure (IOP) change from baseline [1] | lash appearance in treated eye versus non-treated eye [2]
CCCCCC(O)c1ccc([C@@H]2[C@@H](C/C=C\CCCC(=O)OCCO)[C@H](C#N)C[C@H]2O)cc1 (some centres unmarked) [Compound A] | decreases from baseline | decreases from baseline | 
CCCCCC(O)c1ccc([C@@H]2[C@@H](C/C=C\CCCC(=O)OCCN3CCOCC3)[C@H](C#N)C[C@H]2O)cc1 (some centres unmarked) [Compound B] | decreases from baseline | decreases from baseline | 
CCNC(=O)CCC/C=C\C[C@@H]1[C@@H](/C=C/[C@@H](O)CCc2ccccc2)[C@H](O)C[C@@H]1O [bimatoprost] |  |  | longer, thicker, and fuller in the treated eye than in the non-treated eye
